Measurements: patent US7829332B2, “Purines are self-renewal signals for neural stem cells, and purine receptor antagonists promote neuronal and glial differentiation therefrom” (Cornell Research Foundation, Inc., priority 2004, dated 2010)

Key:
Format in all cases: cell-based, mouse
neural progenitor cells = assay: Calcium imaging (fluo-4/am) of Ca2+i responses in 1-2 day cultures
Experimental: Neuronal cultures were prepared from E16 mice and maintained as earlier described (Nedergaard, M., Science 263:1768-1771 (1994), which is hereby incorporated by reference in its entirety). Cytosine arabinoside (20 μM) was added at 48 hr to eliminate proliferating cells. Neural progenitor cells were isolated from E13 mice as previously described (Morshead et al., Neuron 13:1071-82 (1994); Reynolds et al., Science 255:1707-10 (1992), which are hereby incorporated by reference in their entirety). The forebrains were collected in a Ca/Mg-free Hank's buffered saline solution (HBSS) and dissociated in 0.25% trypsin. The cells were resuspended at 4×10^6 cells/ml in DMEM/F12/N2 containing 10 ng/ml bFGF and 10 ng/ml EGF (Sigma, St. Louis, Mo.). The cells were plated at 4 ml/dish into 100 mm suspension culture plates and incubated at 37° C. in 5% CO2. The cells were passaged 2 to 3 times before use.
To test the idea that purinergic signaling is restricted to undifferentiated neural precursor cells, Ca^2+ responses to ATP were first examined as a function of time after plating either neural stem cells or differentiated neurons. Cultured mouse cortical neurons in near-pure neuronal cultures were loaded with fluo-4/am and exposed to either ATP (100 μM) or K^+ (60 mM). […] The responses to ATP fell by day 3 and were absent 9 days after plating. […] By 30 hours after plating, MAP2-defined neurons expressed substantially less P2Y receptor-immunoreactivity than did neighboring, MAP2^− cells (FIG. 1C). By 5 days, P2Y-immunoreactivity was restricted to GFAP^+ astrocytes.
ATP-induced Ca^2+i increments were inhibited by both suramin (100 μM) and reactive blue (RB; 30 μM), two mechanistically-unrelated inhibitors of purinergic signaling (FIG. 1D).

neural stem cells = assay: BrdU incorporation assay (mitotic index); details: 4 hrs incubation
Experimental: (§1) For the BrdU incorporation assay, the cultures were incubated for 4 hrs in BrdU (Sigma, 10 μg/ml, 4 hrs), fixed and stained with rat monoclonal anti-BrdU (MAS250C, Harlan Sera-lab, Loughborough, UK; 1:200) and Cy3-conjugated goat anti-rat antibodies (Jackson ImmunoResearch, 1:300). Nuclei were visualized by Sytox (Molecular Probes, Inc.), and the mitotic index was calculated as the ratio of BrdU/Sytox positive nuclei. Limiting dilution analysis was performed as previously described (Keyoung et al., Nature Biotechnology 19:843-850 (2001); Uchida et al., Proc. Natl. Acad. Sci. 97:14720-14725 (2000), which are hereby incorporated by reference in their entirety).
Purinergic signaling has long-term effects on proliferation of numerous cell types, including rapidly replicating transformed cell lines (Burnstock, G., Arterioscler Thromb Vasc Biol 22:364-73 (2002); Michoud et al., Am J Respir Cell Mol Biol 27:732-8 (2002); Sauer et al., J Cell Sci 115:3265-73 (2002); Tu et al., Br J Pharmacol 129:1481-9 (2000), which are hereby incorporated by reference in their entirety). To better define the mitogenic effects of P2Y on neural progenitor cells, the mitogenic effects of ATP, its analogs, and its dephosphorylated metabolites were compared. To this end, BrdU incorporation by neural stem cells was quantified after 4 hrs incubation in each treatment.

neural progenitors = assay: Limiting dilution analysis of dissociated neurospheres; details: for minimum density at which cells remain viable and expand: low density cultures
Experimental: as §1
To assess the requirement of P2Y signaling in self-renewal, neurospheres were dissociated to low density cultures and limiting dilution analysis performed, in the presence or absence of either suramin or RB. […] Thus, purinergic receptor activation was required not only for continued proliferation of neural progenitors, but also for survival at low plating densities.

neurospheres = assay: Flow cytometry of S-phase fraction and P27 expression; details: for P27 expression: suramin 300 μM, RB 40 μM (FIG. 3D); for fraction of cells in S-phase: treated cultures, untreated control 16.4%±1.8%, p<0.001
Experimental: Cultures were stained for nestin (monoclonal clone Rat 401, IgG1, or rabbit antiserum, Chemicon, Temecula, Calif.; 1:2000), neuronal class III β-tubulin (monoclonal clone TuJ1, IgG2a, Covance, Philadelphia, Pa.; 1:500), MAP-2 (2a+2b) (monoclonal clone AP-20, ascites fluid, Sigma, St. Louis, Mo.; 1:500), Neuronal protein HuC/HuD (monoclonal 16A11, Molecular Probes, Eugene, Oreg.; 15 μg/ml), O4 (monoclonal IgM supernatant; O4 hybridoma, or GFAP (mouse clone GA5, or rabbit antiserum, Sigma; 1:500,), purinergic receptors P2Y1, P2Y2, P2Y4 (polyclonal, Alomone Labs, Jerusalem, Israel, 1:200), p27 (polyclonal, Chemicon, 1:2000), cyclins D1 and E (polyclonal, H-295 and M-20, respectively, Santa Cruz Biotechnology, Santa Cruz, Calif.; 1:100), Secondary antibodies were FITC-conjugated goat anti-mouse IgM (μ-chain specific, Sigma; 1:500), Cy3-conjugated goat-anti-rabbit IgG (H+ L) (1:200), Cy5-conjugated Goat-anti-mouse IgG (H+L) (both from Jackson ImmunoResearch, West Grove, Pa.; 1:100). Nuclei were counter-stained with Sytox Green or propidium iodide (Molecular Probes). P27, cyclin D and cyclin E FACS analyses were performed on an EPICS ELITE ESP flow cytometer/cell sorter (Beckman Coulter), as described (Deptala et al., Int J Oncol 15:861-71 (1999), which is hereby incorporated by reference in its entirety). The analysis of ectonucleotidase activity was adapted from Braun et al., “Expression of the Ecto-ATPase NTPDase2 in the Germinal Zones of the Developing and Adult Rat Brain,” Eur. J. Neurosci. 17:1355-64 (2003), which is hereby incorporated by reference in its entirety. Cryostat sections from paraformaldehyde-perfused animals were utilized. All experiments used either inosine diphosphate (IDP), adenosine diphosphate (ADP), or adenosine triphosphate (ATP) as substrate (1 mM), whereas substrate was omitted from controls.
The inhibition of proliferation afforded by suramin and RB was reversible. The percentage of cells in S-phase recovered by 50% at 8 h and by 80% at 24 hr after wash-out of the drugs.

neural spheres = assay: Lineage potential by clonal expansion and immunostaining; details: 5 day exposure, then 7 days without inhibitors
Experimental: Cultures were stained for nestin (monoclonal clone Rat 401, IgG1, or rabbit antiserum, Chemicon, Temecula, Calif.; 1:2000), neuronal class III β-tubulin (monoclonal clone TuJ1, IgG2a, Covance, Philadelphia, Pa.; 1:500), MAP-2 (2a+2b) (monoclonal clone AP-20, ascites fluid, Sigma, St. Louis, Mo.; 1:500), Neuronal protein HuC/HuD (monoclonal 16A11, Molecular Probes, Eugene, Oreg.; 15 μg/ml), O4 (monoclonal IgM supernatant; O4 hybridoma, or GFAP (mouse clone GA5, or rabbit antiserum, Sigma; 1:500,), purinergic receptors P2Y1, P2Y2, P2Y4 (polyclonal, Alomone Labs, Jerusalem, Israel, 1:200), p27 (polyclonal, Chemicon, 1:2000), cyclins D1 and E (polyclonal, H-295 and M-20, respectively, Santa Cruz Biotechnology, Santa Cruz, Calif.; 1:100), Secondary antibodies were FITC-conjugated goat anti-mouse IgM (μ-chain specific, Sigma; 1:500), Cy3-conjugated goat-anti-rabbit IgG (H+ L) (1:200), Cy5-conjugated Goat-anti-mouse IgG (H+L) (both from Jackson ImmunoResearch, West Grove, Pa.; 1:100). Nuclei were counter-stained with Sytox Green or propidium iodide (Molecular Probes). P27, cyclin D and cyclin E FACS analyses were performed on an EPICS ELITE ESP flow cytometer/cell sorter (Beckman Coulter), as described (Deptala et al., Int J Oncol 15:861-71 (1999), which is hereby incorporated by reference in its entirety). […]

SMILES | inhibition of ATP-induced Ca2+i increments (neural progenitor cells; reactive blue 30 μM) | proliferation (BrdU incorporation) (neural stem cells) | minimum density at which cells remain viable and expand (neural progenitors) | survival at low plating densities (neural progenitors) | P27 expression (neurospheres) | fraction of cells in S-phase (neurospheres) [%] | lineage potential of exposed progenitor cells (neural spheres) | inhibition of ATP-induced Ca2+i increments (neural progenitor cells; suramin 100 μM)
Nc1c(S(=O)(=O)O)cc(Nc2ccc(Nc3nc(Cl)nc(Nc4cccc(S(=O)(=O)O)c4)n3)c(S(=O)(=O)O)c2)c2c1C(=O)c1ccccc1C2=O [RB, reactive blue 2] | inhibited | inhibited proliferation in a dose-dependent manner | increased the minimum density | died by 5 days in vitro | rose more strongly | 5.7±0.3 | neither suramin nor RB restricted the lineage potential | –
Cc1ccc(C(=O)Nc2ccc(S(=O)(=O)O)c3cc(S(=O)(=O)O)cc(S(=O)(=O)O)c23)cc1NC(=O)c1cccc(NC(=O)Nc2cccc(C(=O)Nc3cc(C(=O)Nc4ccc(S(=O)(=O)O)c5cc(S(=O)(=O)O)cc(S(=O)(=O)O)c45)ccc3C)c2)c1 [suramin] | – | inhibited proliferation in a dose-dependent manner | increased the minimum density | died by 5 days in vitro | increase in the tumor suppressor P27 | 8.4±2.3 | neither suramin nor RB restricted the lineage potential | inhibited
